Key:
PI3Kα = PI3Kα (Homo sapiens (Human), UniProt P42336); conditions: read-out: PI3Kα AlphaScreen ® Ki
[1] = test system: phosphorylation of Akt at Serine 473 in U87 MG cells; experiment: cells; conditions: Homo sapiens, U-87 MG, 2 h, read-out: U87Cell IC50, pAkt (Ser 473), U87 MG cells, two hours with compound

PI3Kα, sequence (P42336 whole entry): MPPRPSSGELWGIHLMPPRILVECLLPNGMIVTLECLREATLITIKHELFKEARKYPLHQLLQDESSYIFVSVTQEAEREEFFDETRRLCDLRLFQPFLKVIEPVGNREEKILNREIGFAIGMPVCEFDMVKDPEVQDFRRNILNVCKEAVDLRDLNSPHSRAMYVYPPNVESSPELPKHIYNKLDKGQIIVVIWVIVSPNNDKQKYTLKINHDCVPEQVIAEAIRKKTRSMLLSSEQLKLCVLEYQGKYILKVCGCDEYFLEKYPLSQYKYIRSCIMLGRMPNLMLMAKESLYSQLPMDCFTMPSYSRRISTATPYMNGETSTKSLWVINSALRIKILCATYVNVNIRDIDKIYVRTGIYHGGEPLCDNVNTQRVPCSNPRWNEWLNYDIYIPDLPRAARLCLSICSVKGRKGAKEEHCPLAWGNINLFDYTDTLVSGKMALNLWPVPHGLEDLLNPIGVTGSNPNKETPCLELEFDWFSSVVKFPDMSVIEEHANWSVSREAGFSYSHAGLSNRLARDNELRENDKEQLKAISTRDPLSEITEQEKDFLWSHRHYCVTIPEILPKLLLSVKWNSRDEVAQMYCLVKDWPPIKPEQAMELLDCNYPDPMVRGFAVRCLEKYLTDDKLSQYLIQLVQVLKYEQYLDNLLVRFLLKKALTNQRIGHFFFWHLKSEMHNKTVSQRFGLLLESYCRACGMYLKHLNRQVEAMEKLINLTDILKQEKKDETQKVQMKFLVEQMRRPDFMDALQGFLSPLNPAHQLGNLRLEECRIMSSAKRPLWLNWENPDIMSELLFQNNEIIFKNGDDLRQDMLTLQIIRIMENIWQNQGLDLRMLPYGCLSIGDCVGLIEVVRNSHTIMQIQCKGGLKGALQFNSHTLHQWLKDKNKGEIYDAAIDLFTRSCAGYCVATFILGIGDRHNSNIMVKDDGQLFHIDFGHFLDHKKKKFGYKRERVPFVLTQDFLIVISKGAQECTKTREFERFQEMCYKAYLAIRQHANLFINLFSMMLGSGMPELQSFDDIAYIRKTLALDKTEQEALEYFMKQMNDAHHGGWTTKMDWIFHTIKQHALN
PI3Kα, sequence (P27986 whole entry partner): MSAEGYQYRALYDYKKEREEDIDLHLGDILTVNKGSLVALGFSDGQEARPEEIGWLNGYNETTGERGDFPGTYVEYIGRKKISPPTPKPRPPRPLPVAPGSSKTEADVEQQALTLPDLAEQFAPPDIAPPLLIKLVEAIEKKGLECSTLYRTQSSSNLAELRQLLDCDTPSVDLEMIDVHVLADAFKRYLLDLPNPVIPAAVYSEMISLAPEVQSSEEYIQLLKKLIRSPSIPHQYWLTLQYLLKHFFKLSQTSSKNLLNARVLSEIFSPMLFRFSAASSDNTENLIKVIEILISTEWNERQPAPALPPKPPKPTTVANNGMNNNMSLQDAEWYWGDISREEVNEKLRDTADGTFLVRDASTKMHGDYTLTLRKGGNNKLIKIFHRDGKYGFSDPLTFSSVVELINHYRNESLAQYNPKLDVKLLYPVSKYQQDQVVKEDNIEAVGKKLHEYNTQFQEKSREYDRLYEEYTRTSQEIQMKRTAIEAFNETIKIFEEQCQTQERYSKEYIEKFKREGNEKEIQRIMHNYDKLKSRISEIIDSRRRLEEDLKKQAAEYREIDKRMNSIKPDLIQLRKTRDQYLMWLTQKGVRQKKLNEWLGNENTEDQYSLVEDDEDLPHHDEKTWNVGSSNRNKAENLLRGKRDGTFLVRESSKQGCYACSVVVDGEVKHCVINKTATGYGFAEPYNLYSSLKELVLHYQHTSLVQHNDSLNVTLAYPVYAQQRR

Row | SMILES | Ki (PI3Kα) [nM] | IC50 [1] [nM]
1 | Cc1nc(-c2cccnc2Nc2cnc(Cl)c(NS(C)(=O)=O)c2)c2nc[nH]c2n1 [Example 338, N-(2-Chloro-5-(3-(2-Methyl-9H-Purin-6-yl)Pyridin-2-Ylamino)Pyridin-3-yl)Methanesulfonamide] | 5 | 46
2 | COc1ncc(Nc2ncc([C@H](C)N3CCN(S(C)(=O)=O)C[C@@H]3C)cc2-c2nc(C)nc3[nH]cnc23)cc1F [Example 296, N-(5-Fluoro-6-Methoxypyridin-3-yl)-5-((S)-1-((S)-2-Methyl-4-(Methylsulfonyl)Piperazin-1-yl)Ethyl)-3-(2-Methyl-9H-Purin-6-yl)Pyridin-2-Amine] | 18 | 51
3 | COc1ncc(Nc2ncc([C@@H](C)N3CCOCC3)cc2-c2cc(N)nc(C)n2)cc1F [Example 276, 6-(2-((5-Fluoro-6-Methoxy-3-Pyridinyl)Amino)-5-((1R)-1-(4-Morpholinyl)Ethyl)-3-Pyridinyl)-2-Methyl-4-Pyrimidinamine] | 17 | 91
4 | CNc1nc(C)nc(-c2cc(CN3CCN(S(C)(=O)=O)CC3)cnc2Nc2ccc(OC)nc2)n1 [Example 163, 4-(2-(6-Methoxypyridin-3-Ylamino)-5-((4-(Methylsulfonyl)Piperazin-1-yl)Methyl)Pyridin-3-yl)-N,6-Dimethyl-1,3,5-Triazin-2-Amine] | 7 | 30
5 | COc1ccc(Nc2ncc(CNc3ccccc3)cc2-c2nc(C)nc3[nH]cnc23)cn1 [Example 83, N-(6-methoxypyridin-3-yl)-3-(2-methyl-9H-purin-6-yl)-5-((phenylamino)methyl)pyridin-2-amine] | 45 | 700
6 | COc1ccc(Nc2ncc(CNCc3cccnc3)cc2-c2nc(C)nc3[nH]cnc23)cn1 [Example 138, N-(6-methoxypyridin-3-yl)-3-(2-methyl-9H-purin-6-yl)-5-((pyridin-3-ylmethylamino)methyl)pyridin-2-amine] | 48 | 172
7 | Cc1nc(N)nc(-c2cc(C(C)N3CCN(S(C)(=O)=O)CC3)cnc2Nc2ccc3scnc3c2)n1 (centres unmarked) [Example 290, N-(3-(4-Amino-6-Methyl-1,3,5-Triazin-2-yl)-5-(1-(4-(Methylsulfonyl)Piperazin-1-yl)Ethyl)Pyridin-2-yl)Benzo[D]Thiazol-5-Amine] | 24 | 45
8 | Cc1nc(-c2cc(C(C)N3CCOCC3)cnc2Nc2cnc(Cl)c(NS(C)(=O)=O)c2)c2nc[nH]c2n1 (centres unmarked) [Example 339, N-(2-Chloro-5-(3-(2-Methyl-9H-Purin-6-yl)-5-(1-Morpholinoethyl)Pyridin-2-Ylamino)Pyridin-3-yl)Methanesulfonamide] | 3 | 45
9 | COc1ccc(Nc2ncc(N3CCC(O)C3)cc2-c2nc(C)nc3[nH]cnc23)cn1 (centres unmarked) [Example 98, 1-(6-(6-Methoxypyridin-3-Ylamino)-5-(2-Methyl-9H-Purin-6-yl)Pyridin-3-yl)Pyrrolidin-3-ol] | 79 | 297
10 | COc1cncc(Nc2ncccc2-c2nc(C)nc3[nH]cnc23)c1 [Example 183, N-(5-Methoxypyridin-3-yl)-3-(2-Methyl-9H-Purin-6-yl)Pyridin-2-Amine] | 26 | 446

The remaining lines, values ahead:

Row | Ki (PI3Kα) [nM] | IC50 [1] [nM] | SMILES
11 | 14 | 83 | COc1ncc(Nc2ncc(CN3CCN(C(=O)N(C)C(C)C)CC3)cc2-c2nc(C)nc(N)n2)cc1F [Example 357, 4-((5-(4-Amino-6-Methyl-1,3,5-Triazin-2-yl)-6-(5-Fluoro-6-Methoxypyridin-3-Ylamino)Pyridin-3-yl)Methyl)-N-Isopropyl-N-Methylpiperazine-1-Carboxamide]
12 | 8 | 43 | Cc1nc(N)nc(-c2cc(CN3CCN(S(C)(=O)=O)CC3)cnc2Nc2ccc3scnc3c2)n1 [Example 240, N-(3-(4-Amino-6-Methyl-1,3,5-Triazin-2-yl)-5-((4-(Methylsulfonyl)Piperazin-1-yl)Methyl)Pyridin-2-yl)Benzo[D]Thiazol-5-Amine]
13 | 44 | 134 | COc1ncc(Nc2ncc(C(=O)N3CCC(O)CC3)cc2-c2nc(C)nc(N)n2)cc1F [Example 176, (5-(4-amino-6-methyl-1,3,5-triazin-2-yl)-6-(5-fluoro-6-methoxypyridin-3-ylamino)pyridin-3-yl)(4-hydroxypiperidin-1-yl)methanone]
14 | 27 | 31 | COc1ncc(Nc2ncc(CN3CCOC[C@@H]3C)cc2-c2nc(C)nc(N)n2)cc1F [Example 315, (S)-4-(2-(5-Fluoro-6-Methoxypyridin-3-Ylamino)-5-((3-Methylmorpholino)Methyl)Pyridin-3-yl)-6-Methyl-1,3,5-Triazin-2-Amine]
15 | 93 | 295 | COc1ccc(Nc2ncc(CN3CCOC[C@@H]3C)cc2-c2nc(C)nc(N)n2)cn1 [Example 219, (S)-4-(2-(6-Methoxypyridin-3-Ylamino)-5-((3-Methylmorpholino)Methyl)Pyridin-3-yl)-6-Methyl-1,3,5-Triazin-2-Amine]
16 | 2 | 6 | COc1ncc(Nc2ncc(Cc3ccc(S(C)(=O)=O)cc3)cc2-c2nc(C)nc(N)n2)cc1F [Example 142, 4-(2-(5-fluoro-6-methoxypyridin-3-ylamino)-5-(4-(methylsulfonyl)benzyl)pyridin-3-yl)-6-methyl-1,3,5-triazin-2-amine]
17 | 409 | > 10000 | COCCNc1nc(C)nc(-c2cc(Cl)cnc2Nc2cnc(OC)c(F)c2)n1 [Example 189, 4-(5-Chloro-2-(5-Fluoro-6-Methoxypyridin-3-Ylamino)Pyridin-3-yl)-N-(2-Methoxyethyl)-6-Methyl-1,3,5-Triazin-2-Amine]
18 | 1 | 11 | COc1ncc(Nc2ncc(C(C)c3ccc(S(C)(=O)=O)cc3)cc2-c2nc(C)nc(N)n2)cc1F (centres unmarked) [Example 150, 4-(2-(5-Fluoro-6-Methoxypyridin-3-Ylamino)-5-(1-(4-(Methylsulfonyl)Phenyl)Ethyl)Pyridin-3-yl)-6-Methyl-1,3,5-Triazin-2-Amine]
19 | 33 | 211 | COc1ncc(Nc2nc(C)ccc2-c2nc(C)nc(N)n2)cc1F [Example 197, 4-(2-(5-Fluoro-6-Methoxypyridin-3-Ylamino)-6-Methylpyridin-3-yl)-6-Methyl-1,3,5-Triazin-2-Amine]
20 | 7 | 26 | COc1ccc(Nc2ncc(C(C)N3CCN(S(C)(=O)=O)CC3)cc2-c2nc(C)nc(N)n2)cn1 (centres unmarked) [Example 144, 4-(2-(6-Methoxypyridin-3-Ylamino)-5-(1-(4-(Methylsulfonyl)Piperazin-1-yl)Ethyl)Pyridin-3-yl)-6-Methyl-1,3,5-Triazin-2-Amine]
21 | 4 | > 10000 | COc1ccc(Nc2ncc(C(O)c3ccc(S(=O)(=O)N(C)C)cc3)cc2-c2nc(C)nc(N)n2)cn1 (centres unmarked) [Example 236, 4-((5-(4-Amino-6-Methyl-1,3,5-Triazin-2-yl)-6-(6-Methoxypyridin-3-Ylamino)Pyridin-3-yl)(Hydroxy)Methyl)-N,N-Dimethylbenzenesulfonamide]
22 | 86 | 51 | COc1ccc(Nc2ncc([C@@H](O)C(F)(F)F)cc2-c2nc(C)nc(N)n2)cn1 [Example 322, (R)-1-(5-(4-amino-6-methyl-1,3,5-triazin-2-yl)-6-(6-methoxypyridin-3-ylamino)pyridin-3-yl)-2,2,2-trifluoroethanol]
